Laboratory results taken from PMC3022755, “HP1 Recruits Activity-Dependent Neuroprotective Protein to H3K9me3 Marked Pericentromeric Heterochromatin for Silencing of Major Satellite Repeats” (PLoS ONE, 2011).
Where no end group is shown, it is not given here. [ ]: non-standard residue; d: D form. The star is where a group is joined. Biotin = O=C1N[C@H]2[C@H](CS[C@H]2CCCCC(=O)*)N1; Lys(Me3) = C[N+](C)(C)CCCC[C@H](N)C(=O)O; d = 2'-deoxy (DNA)

Assays:
HP1 = assay: ADNP peptide pulldown of HeLa S3 nuclear extract, western blot; assay type: binding
HP1α, HP1β and HP1γ = assay: HP1 distribution after ADNP knockdown; assay type: cell-based, mouse; conditions: NIH3T3, ADNP knockdown; immunofluorescence
[1] = test system: major satellite repeat sequences; assay: CpG methylation, Southern blot after TaiI digestion; assay type: cell-based, mouse; conditions: NIH3T3, ADNP knockdown
H4K20me3 = H4K20me3 levels and distribution after ADNP knockdown; assay type: cell-based, mouse; conditions: NIH3T3, ADNP knockdown; western blot and immunofluorescence
major satellite repeats = assay: Major satellite repeat transcripts, real time PCR; assay type: cell-based, mouse; conditions: ADNP knockdown NIH3T3; relative to GAPDH; vs scrambled siRNA or mock; triplicate
ADNP = assay: siRNA knockdown, western blot; assay type: cell-based, mouse; conditions: NIH3T3, vs scrambled siRNA and untransfected (mock)
H3K27me1 = H3K27me1 levels and distribution after ADNP knockdown; assay type: cell-based, mouse; conditions: NIH3T3, ADNP knockdown; western blot and immunofluorescence
H3K9me3 = H3K9me3 levels and distribution after ADNP knockdown; assay type: cell-based, mouse; conditions: NIH3T3, ADNP knockdown; western blot and immunofluorescence

Substance | HP1 binding (HP1) | distribution of HP1α, HP1β and HP1γ (HP1α, HP1β and HP1γ) | reduction of CpG methylation at major satellite repeats [1] | effects on levels and distribution of H4K20me3 (H4K20me3) | level of major satellite transcripts (major satellite repeats) | ADNP protein levels (ADNP) | effects on levels and distribution of H3K27me1 (H3K27me1) | effects on levels and distribution of H3K9me3 (H3K9me3)
Biotin-EDDSYEAR[Lys(Me3)]SFLTKYFNKQP [ADNPK767me3, methylated ADNP peptide used for pulldown] | does not bind |  |  |  |  |  |  | 
ADNP siRNA: sense 5′ - [GAUUCUUAUGAGGCUAGGA] RNA [TT] DNA, antisense 5′ - [UCCUAGCCUCAUAAGAAUC] RNA [TT] DNA (RNA, 3' dTdT, backbone not given here) [sense 5′ - [GAUUCUUAUGAGGCUAGGA]; RNA [TT]; DNA, antisense 5′ - [UCCUAGCCUCAUAAGAAUC]; DNA] |  | appeared normal | no reduction | no effects | elevated | significant reduction | no effects | no effects
